The values below come from US20230081426A1, “COMPOUNDS AND METHODS FOR KRAS MODULATION AND INDICATIONS THEREFOR” (Plexxikon Inc., priority 2020, published 2023).

Assay [1] has as its target T1, G12D-mutant human KRAS (amino acid residues 1-188) (Homo sapiens, UniProt P01116, G12D).
T1 construct: G12D or G12C-mutant human KRAS (amino acid residues 1-188) with FLAG tag; made in house; host or cells: E. coli
Description: KRAS Binding Disruption Assay (AlphaScreen; biotinylated KRpep-2d analogue or RAF1-RBD), G12D. The settings on record: KRAS G12D; geometric mean; read-out: KRAS GMean IC50 (uM) MUTATION: G12D. In outline: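 Mutant KRAS (5-20 nM) incubated 1 h at 25° C with test compound and 5-20 nM biotinylated KRpep-2d analogue or RAF1-RBD in 20 mM HEPES pH 7.5, 100 mM NaCl, 5 mM MgCl2, 0.01% Tween-20, 0.01% BSA.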

Assay [2] deals with T2, G12V-mutant human KRAS (amino acid residues 1-188) (Homo sapiens, UniProt P01116, G12V).
T2 construct: G12V-mutant human KRAS (amino acid residues 1-188) with FLAG tag was purified from E. coli; made in house; host or cells: E. coli
The experiment in a line: KRAS Binding Competition Assay (AlphaScreen; biotinylated KRpep-2d analogue), G12V. The conditions noted are these: geometric mean, read-out: KRAS GMean IC50 (uM) MUTATION: G12V.

For the compound `CN1CCC[C@H]1COc1nc(N2[C@@H]3CC[C@H]2CN(C(=O)c2c[nH]cn2)C3)c2ccc(-c3cc(O)cc4ccccc34)cc2n1` [P-0350, ((1R,5S)-8-(7-(3-hydroxynaphthalen-1-yl)-2-(((S)-1-methylpyrrolidin-2-yl)methoxy)quinazolin-4-yl)-3,8-diazabicyclo[3.2.1]octan-3-yl)(1H-imidazol-4-yl)methanone], the IC50 in assay [1] is 10 to 100 µM; in assay [2], 0.0001 to 10 µM.

As for `O=C(O)CC(=O)N1[C@@H]2CC[C@H]1CN(c1nc(OCC34CCCN3CCC4)nc3c(F)c(-c4cc(O)cc5ccccc45)ccc13)C2` [P-0353, 3-((1R,5S)-3-(8-fluoro-7-(3-hydroxynaphthalen-1-yl)-2-((tetrahydro-1H-pyrrolizin-7a(5H)-yl)methoxy)quinazolin-4-yl)-3,8-diazabicyclo[3.2.1]octan-8-yl)-3-oxopropanoic acid], the IC50 in assay [1] and in assay [2] was 0.0001 to 10 µM in each case.

Take `CN(C)c1ccc(/C=C/c2nc(N3C[C@H]4CC[C@@H](C3)N4)c3cc(Cl)c(-c4c(O)cccc4F)c(F)c3n2)cc1` [P-0355, 2-(4-((1R,5S)-3,8-diazabicyclo[3.2.1]octan-3-yl)-6-chloro-2-((E)-4-(dimethylamino)styryl)-8-fluoroquinazolin-7-yl)-3-fluorophenol]: the IC50 in assay [1] and in assay [2] was 0.0001 to 10 µM throughout.

Take `CN1CCC[C@H]1COc1nc(N2CC3COCC(C2)N3)c2cc(Cl)c(-c3cc(O)cc4ccccc34)c(F)c2n1` [P-0357, 4-(4-(3-oxa-7,9-diazabicyclo[3.3.1]nonan-7-yl)-6-chloro-8-fluoro-2-(((S)-1-methylpyrrolidin-2-yl)methoxy)quinazolin-7-yl)naphthalen-2-ol]: the IC50 in assay [1] and in assay [2] was 0.0001 to 10 µM throughout.

As to `CN1CCC[C@H]1COc1nc(N2CC3COCC(C2)N3C(=O)CC2SC(=O)NC2=O)c2cc(Cl)c(-c3cc(O)cc4ccccc34)c(F)c2n1` (stereo partly drawn) [P-0358, 5-(2-(7-(6-chloro-8-fluoro-7-(3-hydroxynaphthalen-1-yl)-2-(((S)-1-methylpyrrolidin-2-yl)methoxy)quinazolin-4-yl)-3-oxa-7,9-diazabicyclo[3.3.1]nonan-9-yl)-2-oxoethyl)thiazolidine-2,4-dione], the IC50 in assay [1] and in assay [2] was 0.0001 to 10 µM in each case.

As for `Cc1cccc2c1N(c1ccc3c(N4C[C@H]5CC[C@@H](C4)N5)nc(OC[C@@H]4CCCN4C)nc3c1F)CC(O)C2` (stereo partly drawn) [P-0360, 1-(4-((1R,5S)-3,8-diazabicyclo[3.2.1]octan-3-yl)-8-fluoro-2-(((S)-1-methylpyrrolidin-2-yl)methoxy)quinazolin-7-yl)-8-methyl-1,2,3,4-tetrahydroquinolin-3-ol], the results for the IC50 in assay [1] and in assay [2] were 0.0001 to 10 µM and 10 to 100 µM, respectively.

Turning to `CN(C)c1ccc(Oc2nc(N3C[C@H]4CC[C@@H](C3)N4)c3cc(Cl)c(-c4c(O)cccc4F)c(F)c3n2)cc1` [P-0361, 2-(4-((1R,5S)-3,8-diazabicyclo[3.2.1]octan-3-yl)-6-chloro-2-(4-(dimethylamino)phenoxy)-8-fluoroquinazolin-7-yl)-3-fluorophenol], the IC50 in assay [1] and in assay [2] was 0.0001 to 10 µM in each case.

For `CN(C)c1cccc(/C=C/c2nc(N3C[C@H]4CC[C@@H](C3)N4)c3cc(Cl)c(-c4c(O)cccc4F)c(F)c3n2)c1` [P-0362, 2-(4-((1R,5S)-3,8-diazabicyclo[3.2.1]octan-3-yl)-6-chloro-2-((E)-3-(dimethylamino)styryl)-8-fluoroquinazolin-7-yl)-3-fluorophenol], the IC50 in assay [1] and in assay [2] was 0.0001 to 10 µM each time.

With `CN(C)c1cccc(CCc2nc(N3C[C@H]4CC[C@@H](C3)N4)c3cc(Cl)c(-c4c(O)cccc4F)c(F)c3n2)c1` [P-0363, 2-(4-((1R,5S)-3,8-diazabicyclo[3.2.1]octan-3-yl)-6-chloro-2-(3-(dimethylamino)phenethyl)-8-fluoroquinazolin-7-yl)-3-fluorophenol], the IC50 in assay [1] and in assay [2] was 0.0001 to 10 µM each time.

Take `CN(C)c1cccc(COc2nc(N3C[C@H]4CC[C@@H](C3)N4)c3cc(Cl)c(-c4c(O)cccc4F)c(F)c3n2)c1` [P-0364, 2-(4-((1R,5S)-3,8-diazabicyclo[3.2.1]octan-3-yl)-6-chloro-2-((3-(dimethylamino)benzyl)oxy)-8-fluoroquinazolin-7-yl)-3-fluorophenol]: the IC50 in assay [1] and in assay [2] was 0.0001 to 10 µM in each case.

For the compound `CN1CCC[C@H]1COc1nc(N2C[C@H]3CC[C@@H](C2)N3C(=O)CC#N)c2ccc(-c3cc(O)cc4ccccc34)cc2n1` [P-0368, 3-((1R,5S)-3-(7-(3-hydroxynaphthalen-1-yl)-2-(((S)-1-methylpyrrolidin-2-yl)methoxy)quinazolin-4-yl)-3,8-diazabicyclo[3.2.1]octan-8-yl)-3-oxopropanenitrile], the IC50 in assay [1] and in assay [2] was 0.0001 to 10 µM each time.

Take `CN1C(=O)C(CC(=O)N2[C@@H]3CC[C@H]2CN(c2nc(OC[C@@H]4CCCN4C)nc4cc(-c5cc(O)cc6ccccc56)ccc24)C3)N(C)C1=O` (stereo partly drawn) [P-0369, 5-(2-((1R,5S)-3-(7-(3-hydroxynaphthalen-1-yl)-2-(((S)-1-methylpyrrolidin-2-yl)methoxy)quinazolin-4-yl)-3,8-diazabicyclo[3.2.1]octan-8-yl)-2-oxoethyl)-1,3-dimethylimidazolidine-2,4-dione]: the values for the IC50 in assay [1] and in assay [2] were 0.0001 to 10 µM and 10 to 100 µM, respectively.

With `CN1CCC[C@H]1COc1nc(N2C[C@H]3CC[C@@H](C2)N3C(=O)CC2SC(N)=NC2=O)c2ccc(-c3cc(O)cc4ccccc34)cc2n1` (stereo partly drawn) [P-0370, 2-amino-5-(2-((1R,5S)-3-(7-(3-hydroxynaphthalen-1-yl)-2-(((S)-1-methylpyrrolidin-2-yl)methoxy)quinazolin-4-yl)-3,8-diazabicyclo[3.2.1]octan-8-yl)-2-oxoethyl)thiazol-4(5H)-one], the IC50 in assay [1] and in assay [2] was 0.0001 to 10 µM throughout.

Consider `CN1CCC[C@H]1COc1nc(N2C[C@H]3CC[C@@H](C2)N3C(=O)CC2CCNC2=O)c2ccc(-c3cc(O)cc4ccccc34)cc2n1` (stereo partly drawn) [P-0371, 3-(2-((1R,5S)-3-(7-(3-hydroxynaphthalen-1-yl)-2-(((S)-1-methylpyrrolidin-2-yl)methoxy)quinazolin-4-yl)-3,8-diazabicyclo[3.2.1]octan-8-yl)-2-oxoethyl)pyrrolidin-2-one], for which the IC50 in assay [1] and in assay [2] was 10 to 100 µM each time.

Take `Fc1cc2c(N3C[C@H]4CC[C@@H](C3)N4)nc(OCC34CCCN3CCC4)nc2c(F)c1-c1c[nH]c2ccccc12` [P-0372, 4-((1R,5S)-3,8-diazabicyclo[3.2.1]octan-3-yl)-6,8-difluoro-7-(1H-indol-3-yl)-2-((tetrahydro-1H-pyrrolizin-7a(5H)-yl)methoxy)quinazoline]: the results for the IC50 in assay [1] and in assay [2] were 0.0001 to 10 µM and 10 to 100 µM, respectively.

As for `Fc1cc2c(N3C[C@H]4CC[C@@H](C3)N4)nc(OCC34CCCN3CCC4)nc2c(F)c1-c1c[nH]c2ccc(Cl)cc12` [P-0373, 4-((1R,5S)-3,8-diazabicyclo[3.2.1]octan-3-yl)-7-(5-chloro-1H-indol-3-yl)-6,8-difluoro-2-((tetrahydro-1H-pyrrolizin-7a(5H)-yl)methoxy)quinazoline], the IC50 lay within 0.0001 to 10 µM in assay [1] and 10 to 100 µM in assay [2].

`O=C(Cc1c[nH]c(=O)[nH]c1=O)N1[C@@H]2CC[C@H]1CN(c1nc(OCC34CCCN3CCC4)nc3c(F)c(-c4cc(O)cc5ccccc45)ccc13)C2` [P-0374, 5-(2-((1R,5S)-3-(8-fluoro-7-(3-hydroxynaphthalen-1-yl)-2-((tetrahydro-1H-pyrrolizin-7a(5H)-yl)methoxy)quinazolin-4-yl)-3,8-diazabicyclo[3.2.1]octan-8-yl)-2-oxoethyl)pyrimidine-2,4(1H,3H)-dione]: the IC50 in assay [1] and in assay [2] was 0.0001 to 10 µM in each case.

On to `CN1CC[C@@H](NS(=O)(=O)N2[C@@H]3CC[C@H]2CN(c2nc(OC[C@@H]4CCCN4C)nc4c(F)c(-c5cc(O)cc6ccccc56)ccc24)C3)C1` [P-0376, (1R,5S)-3-(8-fluoro-7-(3-hydroxynaphthalen-1-yl)-2-(((S)-1-methylpyrrolidin-2-yl)methoxy)quinazolin-4-yl)-N-((R)-1-methylpyrrolidin-3-yl)-3,8-diazabicyclo[3.2.1]octane-8-sulfonamide], for which the IC50 in assay [1] and in assay [2] was 0.0001 to 10 µM throughout.

Consider `CN1CCC[C@H]1COc1nc(N2C[C@H]3CC[C@@H](C2)N3S(=O)(=O)N2CCOC2=O)c2ccc(-c3cc(O)cc4ccccc34)c(F)c2n1` [P-0377, 3-(((1R,5S)-3-(8-fluoro-7-(3-hydroxynaphthalen-1-yl)-2-(((S)-1-methylpyrrolidin-2-yl)methoxy)quinazolin-4-yl)-3,8-diazabicyclo[3.2.1]octan-8-yl)sulfonyl)oxazolidin-2-one], for which the IC50 in assay [1] and in assay [2] was 0.0001 to 10 µM each time.

As to `CN1CCC[C@H]1COc1nc(N2C[C@H]3CC[C@@H](C2)N3)c2ccc(-c3nc(N)cc4ccccc34)c(F)c2n1` [P-0378, 1-(4-((1R,5S)-3,8-diazabicyclo[3.2.1]octan-3-yl)-8-fluoro-2-(((S)-1-methylpyrrolidin-2-yl)methoxy)quinazolin-7-yl)isoquinolin-3-amine], the IC50 is 0.0001 to 10 µM in assay [1] and 10 to 100 µM in assay [2].

For `CN1CCC[C@H]1COc1nc(N2C[C@H]3CC[C@@H](C2)N3)c2ccc(-c3nc(N)cc4cccnc34)c(F)c2n1` [P-0379, 8-(4-((1R,5S)-3,8-diazabicyclo[3.2.1]octan-3-yl)-8-fluoro-2-(((S)-1-methylpyrrolidin-2-yl)methoxy)quinazolin-7-yl)-1,7-naphthyridin-6-amine], the figures for the IC50 in assay [1] and in assay [2] were 10 to 100 µM and 100 to 1000 µM, respectively.
